Assays:
[1] = test system: db/db diabetic mice; assay: Effect of intraperitoneal administration of osthole on blood glucose level of db/db diabetic mice; type: in vivo; conditions: male db/db mice, 50 mg/kg intraperitoneal once daily, five days a week for two weeks, fasted about 16 hours; before treatment about 360 mg/dL; DMSO control 550 mg/dL
Description: Six male db/db diabetic mice (6 to 11 week-old, purchased from National Laboratory Animal Center (Taipei, Taiwan)) were fasted for over 8 hours and venous blood was collected for the measurement of blood glucose level. The mice were divided into two groups (control group and experimental group) on the basis of their blood glucose level and body weight. The mice in the control group were given the solvent DMSO by means of intraperitoneal administration. The mice in the experimental group were given osthole (50 mg/kg body weight) (purchased from Hangzhou Gosun Biotechnologies Co., Zhejiang, China) by means of intraperitoneal administration. The solvent and osthole were administered once daily, five days a week for two weeks. The mice were then fasted for about 16 hours before being sacrificed and blood samples were collected for the measurement of blood glucose levels. […] After two weeks of treatment, the blood glucose level of the mice in the control group was elevated to 550 mg/dL, whereas the blood glucose level of the mice in the experimental group was maintained at about 360 mg/dL.

[2] = test system: db/db diabetic mice; assay: Effect of oral administration of osthole on blood glucose level of db/db diabetic mice; type: in vivo; conditions: male db/db mice, 50 mg/kg by gastric tube once daily, five days a week for three weeks, fasted about 16 hours; before treatment about 200 mg/dL; PBS control 400 mg/dL
Description: Six male db/db diabetic mice (5 to 7 week-old, purchased from National Laboratory Animal Center (Taipei, Taiwan)) were fasted for over 8 hours and venous blood was collected for the measurement of blood glucose level. The mice were divided into two groups (control group and experimental group) on the basis of their blood glucose level and body weight. The mice in the control group were fed with PBS by gastric tube. The mice in the experimental group were fed with osthole (50 mg/kg body weight) by gastric tube. The PBS and osthole were administered once daily, five days a week for three weeks. The mice were then fasted for about 16 hours before being sacrificed and blood samples were collected for the measurement of blood glucose level. […] After three weeks of treatment, the blood glucose level of the mice in the control group was elevated to 400 mg/dL; whereas, the blood glucose level of the mice in the experimental group was maintained at about 210 mg/dL.

COc1ccc2ccc(=O)oc2c1CC=C(C)C [osthole, 7-methoxy-8-(3-methyl-2-butenyl)-2H-1-benzopyran-2-one]
blood glucose level after two weeks of treatment [1]: about 360 mg/dL
blood glucose level after three weeks of treatment [2]: about 210 mg/dL

Source: patent publication US8198320B2, “Hypoglycemic activity of osthole” (Taipei Medical University, priority 2008, dated 2012)
